These results are taken from ChEMBL document CHEMBL3400114, “The design, synthesis and biological evaluation of conformationally restricted 4-substituted-2,6-dimethylfuro[2,3-d]pyrimidines as multi-targeted receptor tyrosine kinase and microtubule inhibitors as potential antitumor agents” (Bioorg Med Chem, 2015).

Bounds are passed on as bounds.

The nature of assay [1]: Growth inhibition of human UO31 cells after 48 hrs by sulforhodamine B assay. It is filed as functional. The settings on record: UO-31, 48 h.
Assay [2] is described as follows: Growth inhibition of human COLO205 cells after 48 hrs by sulforhodamine B assay. It is filed as functional. Conditions: COLO 205, 48 h.
A short description of assay [3]: Antiproliferative activity against human SKOV3-MDR1-M6/6 cells overexpressing wild type beta3 tubulin after 48 hrs by sulforhodamine B assay. It is filed as functional, cell-based. The settings on record: SKOV3-MDR1-M6/6, 48 h. A general note: Sulforhodamine B stains cellular protein and so reports cell mass.
Assay [4] can be described thus: Growth inhibition of human HCT15 cells after 48 hrs by sulforhodamine B assay. Conditions: HCT-15, 48 h. It is filed as functional.
The test system of assay [5] is HL-60(TB). Nature of the assay: Growth inhibition of human HL-60(TB) cells after 48 hrs by sulforhodamine B assay. Conditions: HL-60, 48 h. It is filed as functional.
The test system of assay [6] is MCF7. Nature of the assay: Growth inhibition of human MCF7 cells after 48 hrs by sulforhodamine B assay. It is filed as functional. Conditions: MCF7, 48 h.
Assay [7] concerns HeLa. Kind of assay: Antiproliferative activity against human HeLa cells after 48 hrs by sulforhodamine B assay. It is filed as functional, cell-based.
Assay [8] has as its system SN12C. Nature of the assay: Growth inhibition of human SN12C cells after 48 hrs by sulforhodamine B assay. It is filed as functional.
Assay [9] is described as follows: Growth inhibition of human OVCAR3 cells after 48 hrs by sulforhodamine B assay. It is filed as functional. The settings on record: OVCAR-3, 48 h.
The subject of assay [10] is SNB-75. Nature of the assay: Growth inhibition of human SNB75 cells after 48 hrs by sulforhodamine B assay. It is filed as functional. The settings on record: SNB-75, 48 h.
Assay [11] can be described thus: Growth inhibition of human OVCAR5 cells after 48 hrs by sulforhodamine B assay. It is filed as functional. Conditions: OVCAR-5, 48 h.
Assay [12] has as its target Tubulin (Bos taurus) (UniProt Q6B856+Q862L2+Q862F3). Nature of the assay: Displacement of [3H]colchicine from bovine brain tubulin assembly at 1 uM. (In general: Displacement assays read how much labelled ligand stays bound in the presence of the test substance.)
Assay [13] relates to SK-MEL-28. Kind of assay: Growth inhibition of human SK-MEL-28 cells after 48 hrs by sulforhodamine B assay. Conditions: SK-MEL-28, 48 h. It is filed as functional.
Assay [14] can be described thus: Antiangiogenic activity in VEGF-165 and bFGF-stimulated chicken embryo chorioallantoic membrane assessed as inhibition of blood vessel formation after 40 hrs by microscopy. It is filed as functional, tissue-based, Gallus gallus.
For assay [15], the system named is SK-OV-3. Kind of assay: Growth inhibition of human SKOV3 cells after 48 hrs by sulforhodamine B assay. It is filed as functional. The settings on record: SK-OV-3, 48 h.
The subject of assay [16] is A-431. Nature of the assay: Antiproliferative activity against human A431 cells after 48 hrs by sulforhodamine B assay. The settings on record: A-431, 48 h. It is filed as functional, cell-based.

For `COc1ccc2c(c1)CCCN2c1nc(C)nc2oc(C)cc12`, the GI50 in assay [1], in assay [2], in assay [4], in [5], in [6] and in [8] was less than 10 nM each time. Besides, the GI50 (in general, the concentration giving 50% growth inhibition) in assay [9] was less than 10 nM; in [10] it was less than 10 nM; in assay [11] it was 43 nM; in assay [13] it was less than 10 nM; in assay [15], less than 10 nM. Besides, the IC50 (commonly the concentration that inhibits the measured activity by half) in assay [3] is 19.4 nM; in assay [7], 13.5 nM; in [14], 104000 nM; in assay [16], 18 nM. For the same molecule, the inhibition (as a rule, the change of the read-out against control, counted positive when it falls) in assay [12] was found to be 82%.
